In patent US20020031795A1, “Nitrocoumarins for detecting all micro-organisms” (priority 1998, published 2002):

Key:
Assay type in all cases: cell-based
[1] = system: Candida albicans (ATCC 90028); experiment: Fluorescence after 24 hours, serial dilutions in Trypticase Soy broth; conditions: for Fluorescence reading: 24 hours
Protocol: (§1) This experiment was performed to test 7-nitrocoumarin-3-carboxylic acid on sixteen (16) different types of microorganism, including one yeast species.
(§2) A mass of 10 mg of the indicator was dissolved in 4 ml of hot, distilled water and this solution was then added to 96 ml of Trypticase Soy broth. The resultant mixture was sterile-filtered.
[…] Each culture was then diluted 1,000-fold in Trypticase Soy broth and then serial 10-fold dilutions were made in more Trypticase Soy broth until the test aliquot contained no more microbial cells.
(§3) The resultant dilutions ranged from 10^−3 to 10^−13.
(§4) Fifty microliters of each dilution plus 50 μl of Trypticase Soy broth were added to wells of a microtiter plate with or without 7-nitrocoumarin-3-carboxylic acid.
(§5) The plates were read (T zero) and then incubated at 35° C. before being read again after 24 hours. Two different readings were made at each time point:
(§6) of the fluorescence (excitation at 365 nm and emission at 440 nm), using a Biolite F1 2001 fluorometer (Labtech International Limited), for wells containing 7-nitrocoumarin-3-carboxylic acid.

[2] = system: five different species of Enterobacteriaceae; experiment: Reduction by wild strains of five species of Enterobacteriaceae (summary); conditions: 0.17 mmol/l
Protocol: This experiment was designed to investigate whether or not it would be possible to detect Enterobacteriaceae other than E. coli using 7-nitrocoumarin-3-carboxylic acid. The conditions for this experiment were similar to those described for the first experiment (section A).
Five wild strains belonging to the species Citrobacter diversus, Enterobacter agglomerans, Hafnia alvei, Morganella morganii and Shigella sonnei were tested

[3] = system: Acinetobacter baumanii (ATCC 19606); experiment: Fluorescence after 24 hours, serial dilutions in Trypticase Soy broth
Protocol: as §1, §2
(§7) All the microorganisms were grown for 24 hours in Trypticase Soy broth at 35° C. Each culture was then diluted 1,000-fold in Trypticase Soy broth and then serial 10-fold dilutions were made in more Trypticase Soy broth until the test aliquot contained no more microbial cells.
as §3, §4, §5, §6

[4] = system: Shewanella putrefaciens (ATCC 8071); experiment: as above
Protocol: as §1, §2, §7, §3, §4, §5, §6

[5] = system: Moraxella nonliquefaciens (ATCC 19975); experiment: as above
Protocol: as §1, §2, §7, §3, §4, §5, §6

[6] = system: Serratia marcescens (NCTC 10211); experiment: as above
Protocol: as §1, §2, §7, §3, §4, §5, §6

[7] = system: Acinetobacter calcoaceticus (ATCC 7844); experiment: as above
Protocol: as §1, §2, §7, §3, §4, §5, §6

[8] = system: Brevundimonas vesicularis (ATCC 11426); experiment: as above
Protocol: as §1, §2, §7, §3, §4, §5, §6

[9] = system: Burkholderia cepacia (ATCC 25416); experiment: as above
Protocol: as §1, §2, §7, §3, §4, §5, §6

[10] = system: Pseudomonas putida (ATCC 12633); experiment: as above
Protocol: as §1, §2, §7, §3, §4, §5, §6

## O=C(O)c1cc2ccc([N+](=O)[O-])cc2oc1=O [7-nitrocoumarin-3-carboxylic acid]
[1]; dilution 10^−3
  Fluorescence reading: 2847
[1]; dilution 10^−4
  Fluorescence reading: 2609
[1]; dilution 10^−5
  Fluorescence reading: 2335
[1]; dilution 10^−6
  Fluorescence reading: 2041
[1]; dilution 10^−7
  Fluorescence reading: 1693
[1]; dilution 10^−8
  Fluorescence reading: 1745
[1]; dilution 10^−9
  Fluorescence reading: 1693
[1]; dilution 10^−10
  Fluorescence reading: 1751
[1]; dilution 10^−11
  Fluorescence reading: 1666
[1]; dilution 10^−12
  Fluorescence reading: 1702
[1]; dilution 10^−13
  Fluorescence reading: 1666
[1]; RPMI medium, results not presented
  Fluorescent signal compared with bacteria (in words): comparable to that generated by the bacteria
[1]; Trypticase Soy broth
  Fluorescent signal compared with bacteria (in words): only a faint fluorescent signal
[2]
  Reduction by wild strains of five Enterobacteriaceae species (in words): All the strains tested were found to be able to reduce this compound
[3]; dilution 10^−3
  Fluorescence reading: 27016
[3]; dilution 10^−4
  Fluorescence reading: 11695
[3]; dilution 10^−5
  Fluorescence reading: 12525
[3]; dilution 10^−6
  Fluorescence reading: 8912
[3]; dilution 10^−7
  Fluorescence reading: 6953
[3]; dilution 10^−8
  Fluorescence reading: 1651
[3]; dilution 10^−9
  Fluorescence reading: 1705
[3]; dilution 10^−10
  Fluorescence reading: 1718
[3]; dilution 10^−11
  Fluorescence reading: 1678
[3]; dilution 10^−12
  Fluorescence reading: 1687
[3]; dilution 10^−13
  Fluorescence reading: 1660
[4]; dilution 10^−3
  Fluorescence reading: 40277
[4]; dilution 10^−4
  Fluorescence reading: 37262
[4]; dilution 10^−5
  Fluorescence reading: 34890
[4]; dilution 10^−6
  Fluorescence reading: 32034
[4]; dilution 10^−7
  Fluorescence reading: 31793
[4]; dilution 10^−8
  Fluorescence reading: 1911
[4]; dilution 10^−9
  Fluorescence reading: 1902
[4]; dilution 10^−10
  Fluorescence reading: 1972
[4]; dilution 10^−11
  Fluorescence reading: 1917
[4]; dilution 10^−12
  Fluorescence reading: 1935
[4]; dilution 10^−13
  Fluorescence reading: 1990
[5]; dilution 10^−3
  Fluorescence reading: 28160
[5]; dilution 10^−4
  Fluorescence reading: 27889
[5]; dilution 10^−5
  Fluorescence reading: 28439
[5]; dilution 10^−6
  Fluorescence reading: 27648
[5]; dilution 10^−7
  Fluorescence reading: 27385
[5]; dilution 10^−8
  Fluorescence reading: 27196
[5]; dilution 10^−9
  Fluorescence reading: 1974
[5]; dilution 10^−10
  Fluorescence reading: 2057
[5]; dilution 10^−11
  Fluorescence reading: 2002
[5]; dilution 10^−12
  Fluorescence reading: 1956
[5]; dilution 10^−13
  Fluorescence reading: 1907
[6]; dilution 10^−3
  Fluorescence reading: 47178
[6]; dilution 10^−4
  Fluorescence reading: 49470
[6]; dilution 10^−5
  Fluorescence reading: 45804
[6]; dilution 10^−6
  Fluorescence reading: 45454
[6]; dilution 10^−7
  Fluorescence reading: 45637
[6]; dilution 10^−8
  Fluorescence reading: 43088
[6]; dilution 10^−9
  Fluorescence reading: 48320
[6]; dilution 10^−10
  Fluorescence reading: 1678
[6]; dilution 10^−11
  Fluorescence reading: 1641
[6]; dilution 10^−12
  Fluorescence reading: 1636
[6]; dilution 10^−13
  Fluorescence reading: 1621
[7]; dilution 10^−3
  Fluorescence reading: 29657
[7]; dilution 10^−4
  Fluorescence reading: 18288
[7]; dilution 10^−5
  Fluorescence reading: 12311
[7]; dilution 10^−6
  Fluorescence reading: 12223
[7]; dilution 10^−7
  Fluorescence reading: 11635
[7]; dilution 10^−8
  Fluorescence reading: 14858
[7]; dilution 10^−9
  Fluorescence reading: 13353
[7]; dilution 10^−10
  Fluorescence reading: 10862
[7]; dilution 10^−11
  Fluorescence reading: 1712
[7]; dilution 10^−12
  Fluorescence reading: 1654
[7]; dilution 10^−13
  Fluorescence reading: 1699
[8]; dilution 10^−3
  Fluorescence reading: 2543
[8]; dilution 10^−4
  Fluorescence reading: 1962
[8]; dilution 10^−5
  Fluorescence reading: 1861
[8]; dilution 10^−6
  Fluorescence reading: 1941
[8]; dilution 10^−7
  Fluorescence reading: 1928
[8]; dilution 10^−8
  Fluorescence reading: 1889
[8]; dilution 10^−9
  Fluorescence reading: 1929
[8]; dilution 10^−10
  Fluorescence reading: 1910
[8]; dilution 10^−11
  Fluorescence reading: 1938
[8]; dilution 10^−12
  Fluorescence reading: 1919
[8]; dilution 10^−13
  Fluorescence reading: 1877
[9]; dilution 10^−3
  Fluorescence reading: 16978
[9]; dilution 10^−4
  Fluorescence reading: 16719
[9]; dilution 10^−5
  Fluorescence reading: 16808
[9]; dilution 10^−6
  Fluorescence reading: 15800
[9]; dilution 10^−7
  Fluorescence reading: 11973
[9]; dilution 10^−8
  Fluorescence reading: 1969
[9]; dilution 10^−9
  Fluorescence reading: 1996
[9]; dilution 10^−10
  Fluorescence reading: 1950
[9]; dilution 10^−11
  Fluorescence reading: 1925
[9]; dilution 10^−12
  Fluorescence reading: 1965
[9]; dilution 10^−13
  Fluorescence reading: 1914
[10]; dilution 10^−3
  Fluorescence reading: 12589
[10]; dilution 10^−4
  Fluorescence reading: 9810
[10]; dilution 10^−5
  Fluorescence reading: 7670
[10]; dilution 10^−6
  Fluorescence reading: 6806
[10]; dilution 10^−7
  Fluorescence reading: 5714
[10]; dilution 10^−8
  Fluorescence reading: 1715
[10]; dilution 10^−9
  Fluorescence reading: 1664
[10]; dilution 10^−10
  Fluorescence reading: 1660
[10]; dilution 10^−11
  Fluorescence reading: 1651
[10]; dilution 10^−12
  Fluorescence reading: 1660
[10]; dilution 10^−13
  Fluorescence reading: 1657
